Converted amounts (≈) assume the structure as drawn. “And” between values parts separate entries of the source, which are not always exact repeats. Identical values can stand only once. Like-named read-outs stand apart in the source and are kept apart here.
Key:
[1] = test system: S. pneumoniae (n = 12); assay: MIC broth microdilution at IHMA Europe; assay type: cell-based; details: for MIC: Streptococcus pneumoniae
[2] = test system: E. faecium (n = 13); assay: MIC broth microdilution at IHMA Europe; assay type: cell-based; details: Enterococcus faecium
[3] = test system: E. faecalis ATCC 29212; design: method as in earlier work; details: QC range for E. faecalis ATCC 29212, ref CLSI; cited from earlier work
[4] = test system: P. aeruginosa ATCC 27853; assay: IHMA QC MIC; assay type: cell-based
[5] = test system: Haemophilus influenzae (n = 14); assay: MIC broth microdilution at IHMA Europe; assay type: cell-based, H. influenzae; details: for MIC: Haemophilus influenzae
[6] = test system: S. pneumoniae ATCC 49619; design: method as in earlier work; details: QC range for S. pneumoniae ATCC 49619, ref CLSI; cited from earlier work
[7] = test system: E. coli ATCC 25922; assay: IHMA QC MIC; assay type: cell-based
[8] = test system: H. influenzae ATCC 49766; assay: IHMA QC MIC; assay type: cell-based
From the text: (§1) Supplement jm2c01905_si_004.xlsx, sheet "QC" | column: MIC [µg/mL]

[9] = test system: S. pneumoniae ATCC 49619; assay: IHMA QC MIC; assay type: cell-based
From the text: as §1

[10] = test system: E. faecalis ATCC 29212; assay: IHMA QC MIC; assay type: cell-based
From the text: as §1

[11] = test system: H. influenzae ATCC 49247; assay: IHMA QC MIC; assay type: cell-based
From the text: as §1

[12] = test system: S. aureus (VISA) ATCC 700699; assay: MIC broth microdilution (CLSI); assay type: cell-based; details: Staphylococcus aureus; read-out: MIC
In short: (§2)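 Serial twofold broth microdilution per CLSI in cation-adjusted Mueller Hinton broth 2, with 5 × 10^4 bacterial cells per well in 100 μL. Plates were shaken at 150 rpm, 37 °C, for 18 h, then read at OD600. MIC was the concentration where the mean OD600 increment of triplicates stayed below 1.5-fold background.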

[13] = test system: S. aureus (MRSA) ATCC 43300; assay: MIC broth microdilution (CLSI); assay type: cell-based; details: Staphylococcus aureus
In short: as §2

[14] = molecular target: A. baumannii DNA gyrase (Acinetobacter baumannii, UniProt A0ABX6CA01); assay: gel-based supercoiling assay; assay type: biochemical
Chain of A. baumannii DNA gyrase (A0ABX6CA01 1-822): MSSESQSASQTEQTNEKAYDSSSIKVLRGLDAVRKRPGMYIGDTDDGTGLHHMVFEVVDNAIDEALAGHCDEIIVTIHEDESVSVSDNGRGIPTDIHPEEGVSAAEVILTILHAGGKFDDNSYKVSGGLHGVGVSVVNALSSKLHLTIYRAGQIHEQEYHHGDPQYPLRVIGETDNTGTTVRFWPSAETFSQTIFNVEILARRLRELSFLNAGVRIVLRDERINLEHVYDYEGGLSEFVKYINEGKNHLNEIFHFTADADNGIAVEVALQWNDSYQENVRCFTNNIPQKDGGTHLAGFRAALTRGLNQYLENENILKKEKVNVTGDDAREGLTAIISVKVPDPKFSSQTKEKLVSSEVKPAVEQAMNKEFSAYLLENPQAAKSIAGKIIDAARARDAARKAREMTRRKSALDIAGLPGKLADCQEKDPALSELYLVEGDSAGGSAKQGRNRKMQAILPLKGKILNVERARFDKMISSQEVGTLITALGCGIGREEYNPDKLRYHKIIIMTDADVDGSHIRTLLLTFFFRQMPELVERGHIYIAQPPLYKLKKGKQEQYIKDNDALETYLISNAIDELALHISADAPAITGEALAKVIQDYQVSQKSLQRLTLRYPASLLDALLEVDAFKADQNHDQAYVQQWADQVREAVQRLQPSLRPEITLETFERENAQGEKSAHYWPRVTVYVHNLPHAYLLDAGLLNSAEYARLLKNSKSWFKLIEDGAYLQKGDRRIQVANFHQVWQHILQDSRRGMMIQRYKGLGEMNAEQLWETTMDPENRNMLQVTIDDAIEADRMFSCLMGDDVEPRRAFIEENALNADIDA
Chain of A. baumannii DNA gyrase (A0ABX6CII0 1-904 partner): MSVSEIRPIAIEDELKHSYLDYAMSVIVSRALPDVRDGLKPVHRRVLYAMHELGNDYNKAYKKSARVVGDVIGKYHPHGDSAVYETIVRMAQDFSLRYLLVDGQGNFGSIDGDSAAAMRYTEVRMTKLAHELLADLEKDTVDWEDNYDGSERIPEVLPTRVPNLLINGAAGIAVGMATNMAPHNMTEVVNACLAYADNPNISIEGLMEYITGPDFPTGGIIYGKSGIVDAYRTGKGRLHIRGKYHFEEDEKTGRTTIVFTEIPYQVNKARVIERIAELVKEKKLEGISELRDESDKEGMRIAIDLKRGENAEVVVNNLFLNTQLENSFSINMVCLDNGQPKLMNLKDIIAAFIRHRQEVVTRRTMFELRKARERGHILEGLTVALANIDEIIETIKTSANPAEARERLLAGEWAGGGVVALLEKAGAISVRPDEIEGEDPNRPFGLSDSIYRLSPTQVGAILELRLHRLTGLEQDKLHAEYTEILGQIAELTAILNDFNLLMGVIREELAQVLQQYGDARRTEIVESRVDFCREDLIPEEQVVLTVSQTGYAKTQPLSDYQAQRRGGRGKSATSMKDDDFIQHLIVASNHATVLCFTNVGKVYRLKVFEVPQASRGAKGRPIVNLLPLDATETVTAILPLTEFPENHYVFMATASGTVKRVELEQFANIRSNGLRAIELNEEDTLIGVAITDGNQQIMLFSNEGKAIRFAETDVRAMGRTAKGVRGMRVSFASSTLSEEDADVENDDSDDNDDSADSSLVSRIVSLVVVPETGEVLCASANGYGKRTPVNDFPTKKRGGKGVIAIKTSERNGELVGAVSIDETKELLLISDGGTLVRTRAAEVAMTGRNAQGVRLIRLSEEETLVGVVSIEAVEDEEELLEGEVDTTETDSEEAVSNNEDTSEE
Procedure: In all experiments, the activity of the
enzymes was determined prior to the testing of the compound and 1 unit (U) was defined as the
amount of enzyme required to just fully supercoil or decatenate the substrate. This amount of
enzyme was initially used in determination of control inhibitor activity. These experiments were
performed in duplicate. […] The final DMSO
concentration was 1% for all assays. All measurements were performed in quadruplicates. The
condition for each reaction were as follows:
− S. aureus gyrase supercoiling assay
1 U of S. aureus gyrase was incubated with 0.5 µg of relaxed pBR322 DNA in a 30 µL reaction at
magnesium acetate, 10 mM DTT, 2 mM ATP, 500 mM potassium glutamate and 0.05 mg/mL
− S. aureus topo IV decatenation assay
1 U of S. aureus topo IV was incubated with 20 µg kDNA in a 30 µL reaction at 37 °C for 30
mM ATP, 350 mM potassium glutamate and 0.05 mg/mL albumin.
− A. baumannii gyrase supercoiling assay
1 U of A. baumannii gyrase was incubated with 0.5 µg of relaxed pBR322 DNA in a 30 µL reaction
blue), before being loaded on a 1.0% TAE gel run at 80V for 2 hours. Bands were visualised by
ethidium bromide staining for 20 minutes and destaining for 20 minutes. Gels were scanned using
documentation equipment (GeneGenius, Syngene, Cambridge, UK) and % inhibition levels were
measured by determining the relative fluorescence of the supercoiled band using gel scanning
software. […]

Structure (SMILES): CN[C@H](CC(C)C)C(=O)N[C@H]1C(=O)N[C@@H](CC(N)=O)C(=O)N[C@H]2C(=O)N[C@H]3C(=O)N[C@H](C(=O)N[C@H](C(=O)O)c4cc(O)cc(O)c4-c4cc3ccc4O)[C@H](O)c3ccc(c(Cl)c3)Oc3cc2cc(c3O[C@@H]2O[C@H](CO)[C@@H](O)[C@H](O)[C@H]2O[C@H]2C[C@](C)(N)[C@H](O)[C@H](C)O2)Oc2ccc(cc2Cl)[C@H]1O [Vancomycin, vancomycin]
- No. of isolates at MIC [1]: 5 and 6
- Cumulative % at MIC ([1]; MIC 1 µg/mL): 100.0%
- No. of isolates at MIC ([1]; MIC 1 µg/mL): 1
- MIC ([1]; S. pneumoniae IHMA N° 1775387): 0.25 µg/mL (≈ 0.173 µM)
- MIC ([1]; S. pneumoniae IHMA N° 1776057): 0.25 µg/mL (≈ 0.173 µM)
- MIC ([1]; S. pneumoniae IHMA N° 1785617): 0.12 µg/mL (≈ 0.0828 µM)
- MIC ([1]; S. pneumoniae IHMA N° 1800765): 0.12 µg/mL (≈ 0.0828 µM)
- MIC ([1]; S. pneumoniae IHMA N° 1811259): 0.12 µg/mL (≈ 0.0828 µM)
- MIC ([1]; S. pneumoniae IHMA N° 1831562): 0.25 µg/mL (≈ 0.173 µM)
- MIC ([1]; S. pneumoniae IHMA N° 1902609): 0.25 µg/mL (≈ 0.173 µM)
- MIC ([1]; S. pneumoniae IHMA N° 1979675): 0.25 µg/mL (≈ 0.173 µM)
- MIC ([1]; S. pneumoniae IHMA N° 1991963): 1 µg/mL (≈ 0.69 µM)
- MIC ([1]; S. pneumoniae IHMA N° 2057487): 0.12 µg/mL (≈ 0.0828 µM)
- MIC ([1]; S. pneumoniae IHMA N° 2073087): 0.25 µg/mL (≈ 0.173 µM)
- MIC ([1]; S. pneumoniae IHMA N° 2117109): 0.12 µg/mL (≈ 0.0828 µM)
- MIC ([2]; E. faecium IHMA N° 1764866): 16 µg/mL (≈ 11 µM)
- MIC ([2]; E. faecium IHMA N° 1765436): 16 µg/mL (≈ 11 µM)
- MIC ([2]; E. faecium IHMA N° 1765746): > 32 µg/mL
- MIC ([2]; E. faecium IHMA N° 1893573): 32 µg/mL (≈ 22.1 µM)
- MIC ([2]; E. faecium IHMA N° 1893846): > 32 µg/mL
- MIC ([2]; E. faecium IHMA N° 1893942): 32 µg/mL (≈ 22.1 µM)
- MIC ([2]; E. faecium IHMA N° 1894055): > 32 µg/mL
- MIC ([2]; E. faecium IHMA N° 1897027): > 32 µg/mL
- MIC ([2]; E. faecium IHMA N° 1897101): > 32 µg/mL
- MIC ([2]; E. faecium IHMA N° 1904592): > 32 µg/mL
- MIC ([2]; E. faecium IHMA N° 2075051): 16 µg/mL (≈ 11 µM)
- MIC ([2]; E. faecium IHMA N° 2077718): > 32 µg/mL
- MIC ([2]; E. faecium IHMA N° 2083787): > 32 µg/mL
- MIC, CLSI Range [3]: 1 to 4 µg/mL
- MIC ([4]; Pseudomonas aeruginosa, ATCC27853): > 32 µg/mL
- MIC ([4]; QC strain P. aeruginosa ATCC 27853, test date 2021-11-26): >32 µg/mL
- No. of isolates at MIC [5]: 5 and 9
- MIC ([5]; H. influenzae IHMA N° 1227715): > 32 µg/mL
- MIC ([5]; H. influenzae IHMA N° 1241620): > 32 µg/mL
- MIC ([5]; H. influenzae IHMA N° 1244149): 32 µg/mL (≈ 22.1 µM)
- MIC ([5]; H. influenzae IHMA N° 1249803): > 32 µg/mL
- MIC ([5]; H. influenzae IHMA N° 1254355): 32 µg/mL (≈ 22.1 µM)
- MIC ([5]; H. influenzae IHMA N° 1258580): > 32 µg/mL
- MIC ([5]; H. influenzae IHMA N° 1262734): 32 µg/mL (≈ 22.1 µM)
- MIC ([5]; H. influenzae IHMA N° 1272723): > 32 µg/mL
- MIC ([5]; H. influenzae IHMA N° 1286846): > 32 µg/mL
- MIC ([5]; H. influenzae IHMA N° 1337530): > 32 µg/mL
- MIC ([5]; H. influenzae IHMA N° 1440085): > 32 µg/mL
- MIC ([5]; H. influenzae IHMA N° 1479509): 32 µg/mL (≈ 22.1 µM)
- MIC ([5]; H. influenzae IHMA N° 1952952): > 32 µg/mL
- MIC ([5]; H. influenzae IHMA N° 2047461): 32 µg/mL (≈ 22.1 µM)
- MIC, CLSI Range [6]: 0,12 - 0,5 µg/mL
- MIC ([7]; Escherichia coli, ATCC25922): > 32 µg/mL
- MIC ([7]; QC strain E. coli ATCC 25922, test date 2021-11-26): >32 µg/mL
- MIC ([8]; Haemophilus influenzae, ATCC49766): > 32 µg/mL
- MIC ([8]; QC strain H. influenzae ATCC 49766, test date 2021-11-26): >32 µg/mL
- MIC ([9]; QC strain S. pneumoniae ATCC 49619, test date 2021-11-26): 0.12 µg/mL (≈ 0.0828 µM)
- MIC ([9]; Streptococcus pneumoniae, ATCC49619): 0.12 µg/mL (≈ 0.0828 µM)
- MIC ([10]; Enterococcus faecalis, ATCC29212): 2 µg/mL (≈ 1.38 µM)
- MIC ([10]; QC strain E. faecalis ATCC 29212, test date 2021-11-26): 2 µg/mL (≈ 1.38 µM)
- MIC ([11]; Haemophilus influenzae, ATCC49247): > 32 µg/mL
- MIC ([11]; QC strain H. influenzae ATCC 49247, test date 2021-11-26): >32 µg/mL

Structure (SMILES): CO[C@@H]1[C@@H](OC(N)=O)[C@@H](O)[C@H](Oc2ccc3c(O)c(NC(=O)c4ccc(O)c(CC=C(C)C)c4)c(=O)oc3c2C)OC1(C)C [novobiocin]
- MIC [12]: 0.0312 µg/mL
- MIC [13]: 0.125 µg/mL
- IC50 [14]: 2.17 ± 0.16 nM

From publication PMC10041525, “New Dual Inhibitors of Bacterial Topoisomerases with Broad-Spectrum Antibacterial Activity and In Vivo Efficacy against Vancomycin-Intermediate Staphylococcus aureus” (Journal of Medicinal Chemistry, 2023)
